pIC50: −log10 of the molar value. Where two headings read alike, the source gives them in different places.
Target: T1, kinase-domain human PKCι (Homo sapiens, UniProt P41743)
T1 construct: Recombinant, kinase-domain human PKCι is expressed and purified in-house; made in house
T1 sequence (P41743 254-522 limits assumed): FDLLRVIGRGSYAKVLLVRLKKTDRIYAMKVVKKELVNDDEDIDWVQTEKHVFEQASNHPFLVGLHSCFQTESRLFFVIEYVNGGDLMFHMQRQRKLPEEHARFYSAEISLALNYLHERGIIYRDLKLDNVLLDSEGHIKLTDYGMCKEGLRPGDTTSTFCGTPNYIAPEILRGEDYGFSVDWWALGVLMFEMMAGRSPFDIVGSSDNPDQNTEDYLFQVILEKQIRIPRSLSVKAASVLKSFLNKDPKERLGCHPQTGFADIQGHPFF
Assay: PKCι IC50 IMAP fluorescence polarisation assay, kinase-domain enzyme
Format: biochemical
Details: kinase domain PKCi at 2 μM ATP

[1] = read-out: IC50 in IMAP assay against kinase domain PKCi (Activity)
[2] = read-out: IC50 in IMAP assay against kinase domain PKCi

`c1cc(-c2nc(O[C@H]3CCNC3)c3c4c(sc3n2)CCCC4)ccn1` [compound 140, 2-Pyridin-4-yl-4-((S)-pyrrolidin-3-yloxy)-5,6,7,8-tetrahydro-benzo[4,5]thieno[2,3-d]pyrimidine] gave a pIC50 [1] of 5.00 to 6.00.
Work on `Cc1csc2c(N(C)CCN)nc(-c3ccncc3)nc12` [compound 365, N*1*-Methyl-N*1*-(7-methyl-2-pyridin-4-yl-thieno[3,2-d]pyrimidin-4-yl)-ethane-1,2-diamine] yielded a pIC50 [2] of 5.00 to 6.00.
`CC(C)(C)c1cc2nc(-c3ccncc3)nc(NCCN)c2s1` [compound 311, N*1*-(6-tert-Butyl-2-pyridin-4-yl-thieno[3,2-d]pyrimidin-4-yl)-ethane-1,2-diamine] gave a pIC50 [2] of 4.40 to 5.00.
`Cc1n[nH]c(C)c1-c1nc(N2CCCNCC2)c2c3c(sc2n1)CCCC3` [compound 191, 4-[1,4]Diazepan-1-yl-2-(3,5-dimethyl-1H-pyrazol-4-yl)-5,6,7,8-tetrahydro-benzo[4,5]thieno[2,3-d]pyrimidine] was tested, and the pIC50 [1] was 6.00 to 7.00.
`C[C@H](N)CNc1nc(-c2ccncc2)nc2c1sc1cccc(Cl)c12` [compound 373, (S)-N*1*-(9-Chloro-2-pyridin-4-yl-benzo[4,5]thieno[3,2-d]pyrimidin-4-yl)-propane-1,2-diamine] gave a pIC50 [2] of 6.00 to 7.00.
For `Cc1cc(C)c2c(n1)sc1c(NC[C@@H](C)N)nc(-c3ccncc3)nc12` [compound 383, (R)-N*1*-(7,9-Dimethyl-2-pyridin-4-yl-pyrido[3′,2′:4,5]thieno[3,2-d]pyrimidin-4-yl)-propane-1,2-diamine], the pIC50 [2] was 5.00 to 6.00.
`c1cc(-c2nc(OC3CCCNC3)c3c4c(sc3n2)CCCC4)ccn1` (stereo not shown) [compound 141, 4-(Piperidin-3-yloxy)-2-pyridin-4-yl-5,6,7,8-tetrahydro-benzo[4,5]thieno[2,3-d]pyrimidine] was tested, and the pIC50 [1] was 5.00 to 6.00.
`C[C@H](N)CNc1nc(-c2ccncc2F)nc2sc3c(c12)CCCC3` [compound 99, (S)-N*1*-[2-(3-Fluoro-pyridin-4-yl)-5,6,7,8-tetrahydro-benzo[4,5]thieno[2,3-d]pyrimidin-4-yl]-propane-1,2-diamine] showed a pIC50 [1] of 5.00 to 6.00.
For `CC(C)C[C@H](N)COc1nc(-c2ccncc2)nc2sc3c(c12)CCCC3` [compound 138, (S)-3-Methyl-1-(2-pyridin-4-yl-5,6,7,8-tetrahydro-benzo[4,5]thieno[2,3-d]pyrimidin-4-yloxymethyl)-butylamine], the pIC50 [1] was 5.00 to 6.00.
`CC(C)CN1CCN(c2nc(-c3ccncc3)nc3sc4c(c23)CCCC4)CC1` [compound 134, 4-(4-Isobutyl-piperazin-1-yl)-2-pyridin-4-yl-5,6,7,8-tetrahydro-benzo[4,5]thieno[2,3-d]pyrimidine] showed a pIC50 [1] of 4.40 to 5.00.
`Cc1csc2c(N[C@H]3CCNC3)nc(-c3ccncc3)nc12` [compound 364, (7-Methyl-2-pyridin-4-yl-thieno[3,2-d]pyrimidin-4-yl)-(S)-pyrrolidin-3-yl-amine] showed a pIC50 [2] of 5.00 to 6.00.
In the case of `CC1CCc2c(sc3nc(-c4ccncc4)nc(NC[C@@H](N)Cc4ccccc4)c23)C1` (stereo partly drawn) [compound 69, (S)-N*1*-(7-Methyl-2-pyridin-4-yl-5,6,7,8-tetrahydro-benzo[4,5]thieno[2,3-d]pyrimidin-4-yl)-3-phenyl-propane-1,2-diamine], the pIC50 [1] was 6.00 to 7.00.
Work on `COc1cccc(C[C@H](N)COc2nc(-c3ccncc3)nc3sc4c(c23)CCCC4)c1` [compound 180, (S)-1-(3-Methoxy-benzyl)-2-(2-pyridin-4-yl-5,6,7,8-tetrahydro-benzo[4,5]thieno[2,3-d]pyrimidin-4-yloxy)-ethylamine] yielded a pIC50 [1] of 5.00 to 6.00.
`NCCNc1nc(-c2ccnc(F)c2)nc2sc3c(c12)CCCC3` [compound 98, N*1*-[2-(2-Fluoro-pyridin-4-yl)-5,6,7,8-tetrahydro-benzo[4,5]thieno[2,3-d]pyrimidin-4-yl]-ethane-1,2-diamine] showed a pIC50 [1] of 4.40 to 5.00.
`c1cc(CN2CCN(c3nc(-c4ccncc4)nc4sc5c(c34)CCCC5)CC2)ccn1` [compound 118, 2-Pyridin-4-yl-4-(4-pyridin-4-ylmethyl-piperazin-1-yl)-5,6,7,8-tetrahydro-benzo[4,5]thieno[2,3-d]pyrimidine] gave a pIC50 [1] of 5.00 to 6.00.
Work on `CC(C)c1cc2c(NC[C@@H](C)N)nc(-c3ccncc3)nc2s1` [compound 41, (R)-N*1*-(6-Isopropyl-2-pyridin-4-yl-thieno[2,3-d]pyrimidin-4-yl)-propane-1,2-diamine] yielded a pIC50 [1] of 4.40 to 5.00.
Molecule `Clc1cccc2sc3c(OC[C@H]4CCCN4)nc(-c4ccncc4)nc3c12` [compound 478, 9-Chloro-2-pyridin-4-yl-4-((R)-1-pyrrolidin-2-ylmethoxy)-benzo[4,5]thieno[3,2-d]pyrimidine] has a pIC50 [2] of 4.40 to 5.00.
With `C[C@@H](N)CNc1nc(-c2ccncc2)nc2cc(C(C)(C)C)sc12` [compound 308, (R)-N*1*-(6-tert-Butyl-2-pyridin-4-yl-thieno[3,2-d]pyrimidin-4-yl)-propane-1,2-diamine] the pIC50 [2] was 4.40 to 5.00.
Molecule `C[C@H]1CN(c2nc(-c3ccncc3)nc3sc4c(c23)CCCC4)CCN1` [compound 8, 4-((S)-3-Methyl-piperazin-1-yl)-2-pyridin-4-yl-5,6,7,8-tetrahydro-benzo[4,5]thieno[2,3-d]pyrimidine] has a pIC50 [1] of 6.00 to 7.00.
`N[C@H](COc1nc(-c2ccncc2)nc2sc3c(c12)CCCC3)Cc1ccc(Br)cc1` [compound 171, (S)-1-(4-Bromo-benzyl)-2-(2-pyridin-4-yl-5,6,7,8-tetrahydro-benzo[4,5]thieno[2,3-d]pyrimidin-4-yloxy)-ethylamine] showed a pIC50 [1] of 5.00 to 6.00.
In the case of `c1ccc(-c2cc3nc(-c4ccncc4)nc(N4CCNCC4)c3s2)cc1` [compound 301, 6-phenyl-4-piperazin-1-yl-2-pyridin-4-yl-thieno[3,2-d]pyrimidine], the pIC50 [1] was 5.00 to 6.00.
For `N[C@H](COc1nc(-c2ccncc2)nc2sc3c(c12)CCCC3)Cc1ccc2ccccc2c1` [compound 160, (S)-1-Naphthalen-2-ylmethyl-2-(2-pyridin-4-yl-5,6,7,8-tetrahydro-benzo[4,5]thieno[2,3-d]pyrimidin-4-yloxy)-ethylamine], the pIC50 [1] was 4.40 to 5.00.
`COc1ccc(C[C@@H](N)COc2nc(-c3ccncc3)nc3sc4c(c23)CCCC4)cc1` [compound 169, (R)-1-(4-Methoxy-benzyl)-2-(2-pyridin-4-yl-5,6,7,8-tetrahydro-benzo[4,5]thieno[2,3-d]pyrimidin-4-yloxy)-ethylamine] gave a pIC50 [1] of 4.40 to 5.00.
In the case of `Cc1sc2nc(-c3ccncc3)nc(N3CCCNCC3)c2c1-c1ccccc1` [compound 92, 4-[1,4]Diazepan-1-yl-6-methyl-5-phenyl-2-pyridin-4-yl-thieno[2,3-d]pyrimidine], the pIC50 [1] was 5.00 to 6.00.
Molecule `Cc1sc2nc(-c3ccncc3)nc(NC[C@@H](C)N)c2c1C` [compound 38, (R)-N*1*-(5,6-Dimethyl-2-pyridin-4-yl-thieno[2,3-d]pyrimidin-4-yl)-propane-1,2-diamine] has a pIC50 [1] of 5.00 to 6.00.
`Clc1cccc(CN2CCN(c3nc(-c4ccncc4)nc4sc5c(c34)CCCC5)CC2)c1` [compound 124, 4-[4-(3-Chloro-benzyl)-piperazin-1-yl]-2-pyridin-4-yl-5,6,7,8-tetrahydro-benzo[4,5]thieno[2,3-d]pyrimidine] was tested, and the pIC50 [1] was 4.40 to 5.00.
Molecule `CCc1c(C)sc2nc(-c3ccncc3)nc(NC[C@H](C)N)c12` [compound 31, (S)-N*1*-(5-Ethyl-6-methyl-2-pyridin-4-yl-thieno[2,3-d]pyrimidin-4-yl)-propane-1,2-diamine] has a pIC50 [1] of 5.00 to 6.00.
`CC(C)Cc1csc2nc(-c3ccncc3)nc(NCCN)c12` [compound 28, N*1*-(5-Isobutyl-2-pyridin-4-yl-thieno[2,3-d]pyrimidin-4-yl)-ethane-1,2-diamine] was tested, and the pIC50 [1] was 6.00 to 7.00.
